Bridges are numbered along the chain shown (N, C = ends). Where no end group is shown, it is not given here.
Assays:
[1] = test system: Human Abdominal adipose Tissue; assay: Antilipogenic activity in human abdominal adipose tissue; format: cell-based; details: 0.1 μM peptide; BSA + insulin
Method: (§1) The rate of the incorporation of exogenous [C^14]-glucose into total lipid in adipose tissue was measured as the index of anti-lipogenic activity of hGH 177-191.
Adipose tissues were sliced into segments of approximately 200 mg each and then placed in Krebs-Ringer bicarbonate (KRB) buffer (pH 7.4) containing 2% defatted BSA, and glucose (0.1 mg/ml) and gassed with 95% O2-5% CO2 at 37° C. After 1 hr preincubation, the tissues were transferred to another 2 ml of fresh media containing [C^14]-glucose (final specific activity 0.05 μCi/μmol), […] of insulin (0.1 mU/ml) for a further 90 min incubation (conditions as above). Then the tissues were removed, washed thoroughly with KRB buffer and lipid was extracted with 5 ml of chlorofom/methanol (2:1, v/v) The extraction solution was washed with 2 ml of MeOH-H2O solution containing 0.1% MgCl2. A 2.5 ml aliquot of the washed extraction solution was taken and transferred to scintillation vials. The [C^14] radioactivity was measured with a liquid scintillation counter. The rates of total lipid synthesis were expressed as μmol [C^14]-glucose incorporated into lipid/g tissue/hr.
(§2) Tables 6 and 7 show the in vitro antilipogenic and lipolytic activity of hGH 177-191 and two representative analogues (Ref Nos. 9604 and 9605) on human adipose tissue.

[2] = test system: Human Subcutaneous adipose Tissue; assay: Lipolytic activity in human subcutaneous adipose tissue; format: cell-based; details: 0.5 μM peptide
Method: (§3) Adipose tissues were removed from animals and sliced into segments of approximately 200 mg each. Then the tissues were pre-incubated in 25 ml vials containing 2 ml of Krebs-Ringerbicarbonate (KRB) buffer, 4% defatted BSA and 5.5 mM glucose under an atmosphere of carbogen (95%O2/ 5%CO2) at 37° C. for 1 hour. Tissues were then transferred to another vials with fresh medium and the incubation was initiated by adding hGH 177-191 peptide or analogues into the vials. The mixtures were then incubated at 37° C. for 90 minutes. After incubation, the tissues wee removed and aliquots (200 μl) of samples withdrawn from the medium were assayed for the contents of glycerol or free fatty acid (FFA) either by the enzyme assay (glycerol kinase) or calorimetric (copper-dye) spectrometry. The NADH or color produced was then monitored by the absorption at 340 nm and 610 nm, respectively.
as §2

[3] = test system: Porcine adipose Tissue; assay: Lipolytic activity in porcine adipose tissue; format: cell-based, pig; details: 0.5 μM peptide
Method: as §3
Since corresponding sequences of non-human mammals are effectively peptide variants of the human sequence, it is also therefore expected that those corresponding sequences will be effective in other mammals including humans.

[4] = test system: adipose tissues from male Zucker fatty (fa/fa) rats; assay: In vitro glycerol release during lipolysis in isolated adipose tissue; format: cell-based, rat
Method: as §3

[5] = test system: adipose tissues from male Zucker fatty (fa/fa) rats; assay: In vitro inhibition of lipogenesis in isolated adipose tissue; format: cell-based, rat; details: structure-activity summary
Method: as §1
Adipose tissues were sliced into segments of approximately 200 mg each and then placed in Krebs-Ringer bicarbonate (KRB) buffer (pH 7.4) containing 2% defatted BSA, and glucose (0.1 mg/ml) and gassed with 95% O2-5% CO2 at 37° C. After 1 hr preincubation, the tissues were transferred to another 2 ml of fresh media containing [C^14]-glucose (final specific activity 0.05 μCi/μmol), and 0.3 μM of hGH 177-191 in the presence or absence of insulin (0.1 mU/ml) for a further 90 min incubation (conditions as above). Then the tissues were removed, washed thoroughly with KRB buffer and lipid was extracted with 5 ml of chlorofom/methanol (2:1, v/v) The extraction solution was washed with 2 ml of MeOH-H2O solution containing 0.1% MgCl2. A 2.5 ml aliquot of the washed extraction solution was taken and transferred to scintillation vials. The [C^14] radioactivity was measured with a liquid scintillation counter. The rates of total lipid synthesis were expressed as μmol [C^14]-glucose incorporated into lipid/g tissue/hr.

[6] = test system: C57BL/6J (ob/ob) mice; assay: Chronic treatment of C57BL/6J (ob/ob) mice with peptide analogues; format: in vivo, mouse
Method: Animals were given a daily intraperitoneal injection of either saline (as control) or peptide analogue (500 μg/kg body weight). Each point represents the mean±SEM of 6 animals.
The treatment for the two groups of animals was as described in FIG. 11A. Each point represents the mean±SEM of 6 animals.
The animals of the same age and same sex were randomly divided into two groups, housed 6 per cage and maintained on a normal 12-hr light/dark cycle at a constant room temperature of 25° C. in the animal house of the Department of Biochemistry and—Molecular Biology, Monash University, Clayton, Australia. Animals were fed ad libitum on pre-determined quantity of animal pellets (Clark King, Melboume, Australia) and allowed free access to water at all times. The animals were given a daily intraperitoneal (i.p) injection of 0.1 ml of either the synthetic peptide (200-500 μg/kg body weight) or equivalent volume of physiological saline (0.9% sodium chloride) for appropriate number of days. The i.p. injection was administered with a 30G×½″ (0.31×13 mm) needle on a 1-ml disposable tuberculin syringes, and the site of injection was the lower left quadrant of the abdomen of the animals. To study the effects of controlled-delivery of hGH 177-191 and analogues, slow-release peptide-pellets in a diameter of 3 mm were implanted intradermally in the abdominal region of Zucker rats under anaesthesia. The body weight and food intake were monitored for the periods of time as indicated.
Cumulative weight gain and food consumption were determined at 3-day intervals by the measurements of body weight and uneaten food remaining in the cages. The animals were placed in a covered chamber to minimise movement during the weighing procedure. The food consumption data were obtained by subtracting the amount of uneaten food remaining in the cages from the original provision.
The animals were anaesthetised with sodium pentobarbitone (80 mg/kg body weight) 12 hr after the last dose of hGH 177-191. Blood samples were collected from the tail vein of anaesthetised animals 45 mins after the administration of anaesthetic. After being centrifuged at 2000×g for 5 minutes, plasma was removed from the samples and used for metabolite assays. Triglyceride and total cholesterol in plasma were measured by enzyme-spectrophotometric methods. The reagents are based on either a modified glycerol phosphate oxidase (GPO)-Trinder's type colour reaction^24 or a cholesterol oxidase-4-aminoantipyrine method^25. All assays were performed with the CentrifiChem System 400 (Union Carbide) containing an automated pipetter, a centrifugal analyser and a recording spectrophotometer. Seronorm Lipid (Nycomed Pharma Co., Oslo, Norway) was used as the calibrator.

[7] = Post-treatment (Day 20-38), saline
[8] = Treatment (Day 0-18), i.p. 500 μg/kg daily

9605 (KLRIVQCRSVEGSCGF; disulfide 7-14; listed as Homo sapiens) [compound 9605]
14C incorporation [1]: 36 ± 2 Av DPM/mg tissue/hour | Glycerol released [2]: 1100 ± 80 nmol/mg tissue/hour | Glycerol released [3]: 1350 ± 80 nmol/mg tissue/hour

9404 (LRIVQCRSVEGSCGF-NH2; disulfide 6-13; N-terminus assumed; SMILES CC[C@H](C)[C@H](NC(=O)[C@H](CCCNC(=N)N)NC(=O)[C@@H](N)CC(C)C)C(=O)N[C@H](C(=O)N[C@@H](CCC(N)=O)C(=O)N[C@H]1CSSC[C@@H](C(=O)NCC(=O)N[C@@H](Cc2ccccc2)C(N)=O)NC(=O)[C@H](CO)NC(=O)CNC(=O)[C@H](CCC(=O)O)NC(=O)[C@H](C(C)C)NC(=O)[C@H](CO)NC(=O)[C@H](CCCNC(=N)N)NC1=O)C(C)C; listed as Homo sapiens) [compound 9404]
Glycerol release ([4]; peptide concentration 0.1 μM): 1.75 ± 0.12 μmol/g tissue/hr | Glycerol release ([4]; peptide concentration 1.0 μM): 1.94 ± 0.12 μmol/g tissue/hr

9401 (LRIVQCRSVEGSCGF; listed as Homo sapiens) [compound 9401]
Glycerol release ([4]; peptide concentration 0.1 μM): 1.82 ± 0.02 μmol/g tissue/hr | Glycerol release ([4]; peptide concentration 1.0 μM): 1.86 ± 0.12 μmol/g tissue/hr

9407 (LRIVQCKSVEGSCGF; disulfide 6-13; listed as Homo sapiens) [compound 9407]
Glycerol release ([4]; peptide concentration 0.1 μM): 1.83 ± 0.11 μmol/g tissue/hr | Glycerol release ([4]; peptide concentration 1.0 μM): 1.79 ± 0.07 μmol/g tissue/hr | activity according to the in vivo and in vitro assay results (in words) [5]: retains activity

9604 (YLRIVQCRSVEGSCGF; disulfide 7-14; listed as Homo sapiens) [compound 9604]
cumulative weight gain (in words) ([6]; 16-week old ob/ob mice, chronic treatment, FIG. 12): exceptional efficacy | 14C incorporation [1]: 28 ± 3 Av DPM/mg tissue/hour | Glycerol released [3]: 1600 ± 20 nmol/mg tissue/hour

9403 (LRKVQCRSVEGSCGF; disulfide 6-13; listed as Homo sapiens) [compound 9403]
average daily food consumption / appetite versus control (in words) ([6]; 26-week-old ob/ob mice, FIG. 11B): No significance | Ave. food consumption [6, 7]: 5.03 ± 0.13 g/mouse/day | Blood glucose [6, 7]: 6.0 ± 1.0 mM | Body weight gain [6, 7]: 2.00 ± 0.24 g | Final body weight [6, 7]: 56.70 ± 4.45 g | Triglyceride [6, 7]: 0.54 ± 0.15 mM | Ave. food consumption [6, 8]: 4.82 ± 0.22 g/mouse/day | Blood glucose [6, 8]: 6.2 ± 0.8 mM | Body weight gain [6, 8]: -0.32 ± 0.23 g | Final body weight [6, 8]: 54.42 ± 4.66 g | Triglyceride [6, 8]: 0.49 ± 0.10 mM | Initial body weight ([6]; female ob/ob mice 26 weeks, Treatment (Day 0-18), i.p. 500 μg/kg daily): 54.74 ± 4.96 g | Initial body weight ([6]; female ob/ob mice, Post-treatment (Day 20-38), saline): 54.70 ± 4.15 g | anti-obesity action on body weight gain (in words) ([6]; obese mice, FIG. 11A, i.p. 500 μg/kg daily, 18 days): anti-obesity actions | Glycerol release ([4]; peptide concentration 0.1 μM): 1.80 ± 0.03 μmol/g tissue/hr | Glycerol release ([4]; peptide concentration 1.0 μM): 1.88 ± 0.13 μmol/g tissue/hr

Source: patent publication US6737407B1, “Treatment of obesity” (Metabolic Pharmaceuticals, Ltd., priority 1997, dated 2004)
